Activity calls are given as the source filed them.
Key:
[1] = target: Neurotensin receptor type 1 (Homo sapiens, UniProt P30989); format: functional;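 also: Image-based confirmatory dose-response assay measuring agonist activity at NTR1; NTR1-expressing U2OS osteosarcoma cells imaged for beta-arrestin GFP spot formation; agonist potency where compounds increase beta-arrestin recruitment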
[2] = target: T1, Microphthalmia-associated transcription factor (Homo sapiens, UniProt O75030); test: TRPM1 promoter luciferase signal decrease, dose response, MITF inhibitor project, cell-based, SK-MEL-5, cherry-picked, set 3 (AID 493073); format: functional
T1 sequence (O75030 whole entry): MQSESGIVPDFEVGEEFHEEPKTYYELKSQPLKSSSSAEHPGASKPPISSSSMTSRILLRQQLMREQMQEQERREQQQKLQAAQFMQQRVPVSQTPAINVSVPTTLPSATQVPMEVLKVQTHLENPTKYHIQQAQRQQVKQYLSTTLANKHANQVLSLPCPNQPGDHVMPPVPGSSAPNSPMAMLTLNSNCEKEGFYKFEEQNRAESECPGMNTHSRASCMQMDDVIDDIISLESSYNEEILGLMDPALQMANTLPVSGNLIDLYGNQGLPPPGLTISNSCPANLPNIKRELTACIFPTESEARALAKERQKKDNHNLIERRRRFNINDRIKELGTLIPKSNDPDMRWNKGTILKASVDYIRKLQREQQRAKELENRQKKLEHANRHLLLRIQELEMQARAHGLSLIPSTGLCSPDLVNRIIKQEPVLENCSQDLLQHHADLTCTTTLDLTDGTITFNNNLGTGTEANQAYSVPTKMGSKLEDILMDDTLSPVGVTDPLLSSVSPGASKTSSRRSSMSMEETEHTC

[3] = tested on: Streptococcus sp. 'group A'; test: growth inhibition of control SK(-) GAS strain, dose response, counter-screen for streptokinase expression inhibitor project, luminescence, kanamycin, BacTiterGlo, confirmation (AID 1900); format: functional, organism-based
[4] = THP-1 cell cytotoxicity, dose response, cytotoxicity control for Vif-APOBEC3G degradation inhibitor project, THP-1 cells (AID 1117359); format: functional; settings: Human immunodeficiency virus 1, THP-1
[5] = target: T2, Streptokinase A (Streptococcus pyogenes serotype M1, UniProt P10520); test: S. pyogenes streptokinase expression inhibitors, potency, dose response, plasminogen activation absorbance, OD405 (AID 1914); format: functional, Streptococcus pyogenes M1 GAS;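 also: secreted streptokinase activity via plasminogen activation per viability signal from cell pellet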
T2 sequence (P10520 whole entry): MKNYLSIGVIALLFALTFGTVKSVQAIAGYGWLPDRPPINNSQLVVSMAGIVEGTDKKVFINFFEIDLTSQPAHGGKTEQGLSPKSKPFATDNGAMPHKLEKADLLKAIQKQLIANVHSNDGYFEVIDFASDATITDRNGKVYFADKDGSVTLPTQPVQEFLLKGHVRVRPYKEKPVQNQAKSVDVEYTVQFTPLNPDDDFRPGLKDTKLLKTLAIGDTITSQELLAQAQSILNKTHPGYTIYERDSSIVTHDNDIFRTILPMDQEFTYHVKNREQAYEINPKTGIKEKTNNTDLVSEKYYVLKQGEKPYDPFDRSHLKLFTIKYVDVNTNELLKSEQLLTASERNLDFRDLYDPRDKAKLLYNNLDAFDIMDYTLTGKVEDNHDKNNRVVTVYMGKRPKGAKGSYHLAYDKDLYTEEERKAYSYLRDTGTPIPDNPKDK

[6] = tested on: Streptococcus; test: Group A Streptococcus viability loss, dose response, counter-screen for streptokinase expression inhibitor project, luminescence, BacTiterGlo (AID 1915); format: functional, organism-based; settings: read-out: EC50;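 also: potency for reduction of bacterial viability or growth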
[7] = target: T3, Eukaryotic translation initiation factor 2-alpha kinase 3 (Homo sapiens, UniProt Q9NZJ5); test: Dose response cell-based high-throughput screening assay to measure PERK inhibition. [Related pubchem assays: 1416 ]; format: functional
T3 sequence (Q9NZJ5 whole entry): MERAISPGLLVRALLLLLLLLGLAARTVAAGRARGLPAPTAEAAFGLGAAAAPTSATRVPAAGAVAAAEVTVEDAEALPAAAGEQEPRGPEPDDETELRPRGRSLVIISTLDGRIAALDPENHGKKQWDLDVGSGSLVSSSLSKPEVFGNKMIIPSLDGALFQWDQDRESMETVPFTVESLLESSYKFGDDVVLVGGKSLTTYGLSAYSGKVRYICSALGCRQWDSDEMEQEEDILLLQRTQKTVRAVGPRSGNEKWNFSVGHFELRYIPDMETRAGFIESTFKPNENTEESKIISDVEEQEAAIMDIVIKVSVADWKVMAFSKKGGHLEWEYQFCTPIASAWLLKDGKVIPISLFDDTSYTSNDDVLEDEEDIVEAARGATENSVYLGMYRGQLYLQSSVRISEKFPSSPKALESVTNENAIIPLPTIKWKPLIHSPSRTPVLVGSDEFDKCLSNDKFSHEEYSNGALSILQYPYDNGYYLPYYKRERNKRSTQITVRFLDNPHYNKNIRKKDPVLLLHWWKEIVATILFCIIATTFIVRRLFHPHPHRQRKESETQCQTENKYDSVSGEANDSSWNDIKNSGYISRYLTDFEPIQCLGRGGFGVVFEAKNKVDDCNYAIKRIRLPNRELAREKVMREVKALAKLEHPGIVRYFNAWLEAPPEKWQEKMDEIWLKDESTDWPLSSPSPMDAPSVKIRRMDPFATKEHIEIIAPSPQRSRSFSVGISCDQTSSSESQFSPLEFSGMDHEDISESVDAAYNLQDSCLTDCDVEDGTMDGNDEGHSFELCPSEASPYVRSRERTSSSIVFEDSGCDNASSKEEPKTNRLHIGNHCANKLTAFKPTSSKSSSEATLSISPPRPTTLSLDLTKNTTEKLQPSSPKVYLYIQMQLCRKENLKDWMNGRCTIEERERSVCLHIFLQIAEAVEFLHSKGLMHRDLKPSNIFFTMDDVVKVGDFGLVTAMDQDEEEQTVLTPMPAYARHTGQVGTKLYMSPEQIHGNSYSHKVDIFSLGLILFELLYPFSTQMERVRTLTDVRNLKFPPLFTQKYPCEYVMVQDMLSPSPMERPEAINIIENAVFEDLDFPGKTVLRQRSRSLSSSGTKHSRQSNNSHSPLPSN

[8] = target: T3, Eukaryotic translation initiation factor 2-alpha kinase 3; test: Counterscreen assay for PERK inhibitors: Dose response cell-based high throughput screening assay to measure inhibition of PERK at 6 hours. [Related pubchem assays: 1522, 1416 ]; format: functional
[9] = target: T4, Hexokinase HKDC1 (Homo sapiens, UniProt Q2TB90); test: HKDC1 hexokinase inhibitors, dose response, biochemical, W721R variant (AID 504729); format: functional
T4 sequence (Q2TB90 whole entry): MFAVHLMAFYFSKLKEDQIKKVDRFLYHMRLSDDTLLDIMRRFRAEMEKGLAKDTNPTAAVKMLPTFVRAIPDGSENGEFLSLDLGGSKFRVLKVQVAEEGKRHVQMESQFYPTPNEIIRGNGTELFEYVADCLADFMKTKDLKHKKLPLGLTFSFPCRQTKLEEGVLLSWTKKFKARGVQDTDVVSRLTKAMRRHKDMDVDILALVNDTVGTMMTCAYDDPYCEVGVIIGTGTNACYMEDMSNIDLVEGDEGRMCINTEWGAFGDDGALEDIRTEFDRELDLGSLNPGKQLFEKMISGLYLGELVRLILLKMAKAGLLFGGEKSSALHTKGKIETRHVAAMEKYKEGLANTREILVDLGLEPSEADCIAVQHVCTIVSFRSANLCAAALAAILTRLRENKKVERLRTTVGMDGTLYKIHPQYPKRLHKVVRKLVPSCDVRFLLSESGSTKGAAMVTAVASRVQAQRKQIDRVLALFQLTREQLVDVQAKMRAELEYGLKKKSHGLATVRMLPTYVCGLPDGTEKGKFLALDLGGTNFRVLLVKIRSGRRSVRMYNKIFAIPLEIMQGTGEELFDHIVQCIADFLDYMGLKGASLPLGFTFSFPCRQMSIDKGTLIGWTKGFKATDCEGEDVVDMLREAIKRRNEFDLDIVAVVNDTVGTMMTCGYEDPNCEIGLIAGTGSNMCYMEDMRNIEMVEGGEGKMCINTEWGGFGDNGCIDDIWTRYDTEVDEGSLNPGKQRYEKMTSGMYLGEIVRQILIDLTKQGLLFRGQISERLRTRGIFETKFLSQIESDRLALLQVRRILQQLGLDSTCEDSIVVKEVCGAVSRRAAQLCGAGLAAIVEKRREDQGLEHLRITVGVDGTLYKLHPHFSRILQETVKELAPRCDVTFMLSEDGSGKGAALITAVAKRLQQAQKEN

[10] = target: Luciferin 4-monooxygenase (Photinus pyralis, UniProt P08659); test: firefly luciferase enzyme inhibitors, dose response, biochemical, luminescence (AID 1891)
Chain of Luciferin 4-monooxygenase (P08659 whole entry): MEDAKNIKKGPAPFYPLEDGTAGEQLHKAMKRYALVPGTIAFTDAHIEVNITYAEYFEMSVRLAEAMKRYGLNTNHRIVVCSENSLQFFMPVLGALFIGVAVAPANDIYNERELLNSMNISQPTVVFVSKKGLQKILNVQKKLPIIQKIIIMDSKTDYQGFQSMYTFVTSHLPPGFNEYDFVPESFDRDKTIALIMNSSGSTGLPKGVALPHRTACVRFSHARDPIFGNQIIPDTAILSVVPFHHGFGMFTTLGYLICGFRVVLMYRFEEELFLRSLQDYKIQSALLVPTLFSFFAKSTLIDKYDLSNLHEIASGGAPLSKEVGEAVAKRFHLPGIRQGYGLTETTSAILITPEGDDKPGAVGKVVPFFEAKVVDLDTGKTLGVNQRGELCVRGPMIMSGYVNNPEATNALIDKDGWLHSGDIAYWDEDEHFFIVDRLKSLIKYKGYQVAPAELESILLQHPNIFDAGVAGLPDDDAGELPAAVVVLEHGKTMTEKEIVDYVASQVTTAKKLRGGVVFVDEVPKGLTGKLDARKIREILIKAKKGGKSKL

[11] = Luminescence Cell-Based Dose Confirmation HTS to Identify Inhibitors of Platelet Dense Granule Release. [Related pubchem assays: 1663 (Primary HTS), 1678 (Summary of Project)]; format: functional
[12] = HepG2 cell cytotoxicity, dose response, cytotoxicity control for non-replicating M. tuberculosis project (AID 489018); format: functional; settings: Mycobacterium tuberculosis
[13] = Vero E6 cell cytotoxicity, dose response, cytotoxicity control for non-replicating M. tuberculosis project, secondary assay (AID 492998); format: functional, VeroE6; settings: Vero C1008
[14] = THP-1 cell cytotoxicity, dose response, cytotoxicity control for non-replicating M. tuberculosis project (AID 489025); format: functional
[15] = cells; format: functional

Chain of Neurotensin receptor type 1 (P30989 whole entry): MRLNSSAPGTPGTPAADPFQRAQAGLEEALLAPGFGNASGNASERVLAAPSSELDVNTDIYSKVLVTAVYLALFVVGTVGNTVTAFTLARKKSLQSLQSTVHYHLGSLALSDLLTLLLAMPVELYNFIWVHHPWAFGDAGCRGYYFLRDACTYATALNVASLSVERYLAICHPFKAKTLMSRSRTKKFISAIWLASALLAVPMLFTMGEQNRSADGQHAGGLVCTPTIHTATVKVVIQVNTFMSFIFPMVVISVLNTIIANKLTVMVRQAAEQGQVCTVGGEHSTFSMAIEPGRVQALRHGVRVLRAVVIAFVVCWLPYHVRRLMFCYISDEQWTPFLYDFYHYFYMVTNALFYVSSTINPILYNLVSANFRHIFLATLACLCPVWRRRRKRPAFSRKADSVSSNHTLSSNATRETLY

Question: Which EC50 [1] does the source give for CC(=O)n1cc(C(C[N+](=O)[O-])SCCN)c2ccccc21 (stereo not drawn) here?
Answer: 14.2 µM (active)

Question: What does the source list for CN1C(=O)/C(=C/c2cccn2-c2ccc3ccccc3c2)C(=O)NC1=S?
Answer: AC50 [2]: 9.42 µM (active); EC50 [3]: 5.56 µM (active); EC50 [1]: 12.1 µM (active); CC50 [4]: 14.5 µM (active); EC50 [5]: 4.97 µM (active); EC50 [6]: > 50 µM (not active)

Question: Which results are given for Cc1csc2nc(CNC(=O)CCC(=O)O)cn12?
Answer: EC50 [7]: > 55.7 µM (not active); EC50 [8]: > 55.7 µM (not active)

Question: Which IC50 [9] does the source give for CC(C)c1nc2oc3c(NCC4CCCO4)ncnc3c2c2c1COC(C)(C)C2 (stereo not drawn) here?
Answer: 3.81 µM (active)

Question: What about the EC50 [10] of the same molecule?
Answer: > 112 µM (not active)

Question: And the EC50 [11]?
Answer: > 112 µM (not active)

Question: Which EC50 [3] does the source give for O=c1c2cc(Cl)ccc2nc(-c2ccc(Cl)c(Cl)c2)n1O here?
Answer: 0.402 µM (active)

Question: What about the CC50 [12] of the same molecule?
Answer: > 20 µM (active)

Question: What about the CC50 [13] of the same molecule?
Answer: 10.9 µM (active)

Question: And the CC50 [14]?
Answer: 14.2 µM (active)

Question: And the IC50 [15]?
Answer: 4.14 µM (active)

Question: What about the EC50 [6] of the same molecule?
Answer: 0.949 µM (active)

From ChEMBL document CHEMBL1201862, “PubChem BioAssay data set” (2004)
